Assay results published in PubChem BioAssay AID248 (DTP/NCI, 2004).
Several values for one entry are separate records, joined by “and”; a condition that tells them apart may be missing. Equal values may be shown once. Toxic doses and inconclusive results are not listed. Cut-off read from the data, not from the text of the source: active = T/C of 150% or more; inactive = T/C below 125%.

Test system: L1210 leukemia ip in BDF1 mice, survival T/C
Test: NCI In Vivo Anticancer Drug Screen. Data for tumor model L1210 Leukemia (intraperitoneal) in B6D2F1 (BDF1) mice
Conditions: endpoint: mean survival time, higher = longer survival
How it was run: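 In this screen, tumor-bearing mice given compound are compared to those given vehicle, and their survival values are reported as a treated-to-control quotient.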

[1] = dose: 50.0 mg/kg/injection, schedule: Q01DX009 (ip), vehicle: Klucel (hydroxypropylcellulose) (HPC)
[2] = dose: 100.0 mg/kg/injection, schedule: Q01DX009 (ip), vehicle: Klucel (hydroxypropylcellulose) (HPC)
[3] = dose: 100.0 mg/kg/injection, schedule: Q04DX003 (ip), vehicle: Klucel (hydroxypropylcellulose) (HPC)
[4] = dose: 200.0 mg/kg/injection, schedule: Q01DX009 (ip), vehicle: Klucel (hydroxypropylcellulose) (HPC)
[5] = dose: 200.0 mg/kg/injection, schedule: Q04DX003 (ip), vehicle: Klucel (hydroxypropylcellulose) (HPC)
[6] = dose: 400.0 mg/kg/injection, schedule: Q04DX003 (ip), vehicle: Klucel (hydroxypropylcellulose) (HPC)
[7] = dose: 100.0 mg/kg/injection, schedule: Q04DX002 (ip), vehicle: saline with Tween-80
[8] = dose: 200.0 mg/kg/injection, schedule: Q04DX002 (ip), vehicle: saline with Tween-80
[9] = dose: 100.0 mg/kg/injection, schedule: Q01DX001 (ip), vehicle: saline
[10] = dose: 100.0 mg/kg/injection, schedule: Q01DX009 (ip), vehicle: saline
[11] = dose: 200.0 mg/kg/injection, schedule: Q01DX001 (ip), vehicle: saline
[12] = dose: 200.0 mg/kg/injection, schedule: Q01DX009 (ip), vehicle: saline
[13] = dose: 400.0 mg/kg/injection, schedule: Q01DX001 (ip), vehicle: saline
[14] = dose: 400.0 mg/kg/injection, schedule: Q01DX009 (ip), vehicle: saline
[15] = dose: 100.0 mg/kg/injection, schedule: Q04DX003 (ip), vehicle: saline
[16] = dose: 200.0 mg/kg/injection, schedule: Q04DX003 (ip), vehicle: saline
[17] = dose: 400.0 mg/kg/injection, schedule: Q04DX003 (ip), vehicle: saline
[18] = dose: 25.0 mg/kg/injection, schedule: Q01DX009 (ip), vehicle: saline with Tween-80
[19] = dose: 50.0 mg/kg/injection, schedule: Q01DX009 (ip), vehicle: saline with Tween-80
[20] = dose: 100.0 mg/kg/injection, schedule: Q01DX001 (ip), vehicle: saline with Tween-80
[21] = dose: 200.0 mg/kg/injection, schedule: Q01DX001 (ip), vehicle: saline with Tween-80
[22] = dose: 400.0 mg/kg/injection, schedule: Q01DX001 (ip), vehicle: saline with Tween-80
[23] = dose: 100.0 mg/kg/injection, schedule: Q01DX009 (ip), vehicle: saline with Tween-80
[24] = dose: 100.0 mg/kg/injection, schedule: Q01DX001 (ip), vehicle: carboxymethylcellulose (CMC)
[25] = dose: 200.0 mg/kg/injection, schedule: Q01DX001 (ip), vehicle: carboxymethylcellulose (CMC)
[26] = dose: 400.0 mg/kg/injection, schedule: Q01DX001 (ip), vehicle: carboxymethylcellulose (CMC)

Measured: T/C

N#CC(C(=O)c1ccccc1)c1cccc2ccccc12 (configuration not stated)
inactive: [1] 101 % of control | [2] 95 % of control | [3] 95 % of control | [4] 103 % of control | [5] 91 % of control | [6] 91 % of control

Nc1ccn(CC(=O)c2cc3ccccc3[nH]2)c(=O)n1
inactive: [7] 101 % of control | [8] 97 % of control | dose: 400.0 mg/kg/injection, schedule: Q04DX002 (ip), vehicle: saline with Tween-80 108 % of control

COc1cc2nc3cc(Nc4ccccc4)c(=O)c(C(C)=O)c-3n(CCN3CCOCC3)c2cc1OC
inactive: dose: 100.0 mg/kg/injection, schedule: Q04DX002 (ip), vehicle: Klucel (hydroxypropylcellulose) (HPC) 90 % of control | dose: 200.0 mg/kg/injection, schedule: Q04DX002 (ip), vehicle: Klucel (hydroxypropylcellulose) (HPC) 87 % of control | dose: 400.0 mg/kg/injection, schedule: Q04DX002 (ip), vehicle: Klucel (hydroxypropylcellulose) (HPC) 107 % of control

C=C(C(=C)C(=O)O)C(=O)O
inactive: [9] 101 % of control | [10] 98 % of control | [11] 101 % of control | [12] 107 % of control | [13] 98 % of control | [14] 102 % of control

NCC1CC2CCC1C2 (configuration not stated)
inactive: [10] 90 % of control | [15] 101 % of control | [12] 90 % of control | [16] 103 % of control | [17] 103 % of control

CN(C)CCCn1c(=O)c2ccccc2c2ccccc21
inactive: dose: 50.0 mg/kg/injection, schedule: Q01DX001 (ip), vehicle: saline 101 % of control | dose: 50.0 mg/kg/injection, schedule: Q01DX015 (ip), vehicle: saline 98 % of control | [9] 103 % of control | dose: 100.0 mg/kg/injection, schedule: Q01DX015 (ip), vehicle: saline 108 % of control

O=C(NCCCl)NC(Cc1ccccc1)Cc1ccccc1
inactive: [3] 95 % of control | [5] 91 % of control | [6] 95 % of control

Nc1ccc(CCCCc2ccccc2)cc1
inactive: [18] 96 % of control | [19] 89 % of control

Cc1cc(C(C)(C)CC(C)(C)C)ccc1O
inactive: dose: 100.0 mg/kg/injection, schedule: Q01DX009 (sc), vehicle: olive oil, sesame oil, peanut oil 100 % of control | dose: 100.0 mg/kg/injection, schedule: Q04DX003 (sc), vehicle: olive oil, sesame oil, peanut oil 110 % of control | dose: 200.0 mg/kg/injection, schedule: Q01DX009 (sc), vehicle: olive oil, sesame oil, peanut oil 100 % of control | dose: 200.0 mg/kg/injection, schedule: Q04DX003 (sc), vehicle: olive oil, sesame oil, peanut oil 101 % of control | dose: 400.0 mg/kg/injection, schedule: Q01DX009 (sc), vehicle: olive oil, sesame oil, peanut oil 96 % of control | dose: 400.0 mg/kg/injection, schedule: Q04DX003 (sc), vehicle: olive oil, sesame oil, peanut oil 105 % of control

CCN(CC)Cc1cc(Nc2cc(OC)cc3cccnc23)ccc1O
inactive: dose: 10.0 mg/kg/injection, schedule: Q01DX001 (ip), vehicle: saline 111 % of control | dose: 19.0 mg/kg/injection, schedule: Q01DX001 (ip), vehicle: saline 110 % of control | dose: 38.0 mg/kg/injection, schedule: Q01DX001 (ip), vehicle: saline 100 % of control

Nc1nc(=S)c2nnn(C3OC(CO)C(O)C3O)c2[nH]1 (configuration not stated)
inactive: [20] 104 % of control | [21] 104 % of control | [22] 90 % of control

OCC1OC(O)C(O)C(O)C1O (configuration not stated)
inactive: [10] 96 % of control | [12] 98 % of control | [14] 107 % of control | dose: 500.0 mg/kg/injection, schedule: Q01DX009 (ip), vehicle: saline 93 % of control | dose: 500.0 mg/kg/injection, schedule: Q04DX003 (ip), vehicle: saline 96 % of control | dose: 1000.0 mg/kg/injection, schedule: Q01DX009 (ip), vehicle: saline 90 % of control | dose: 1000.0 mg/kg/injection, schedule: Q04DX003 (ip), vehicle: saline 96 % of control | dose: 2000.0 mg/kg/injection, schedule: Q01DX009 (ip), vehicle: saline 106 % of control | dose: 2000.0 mg/kg/injection, schedule: Q04DX003 (ip), vehicle: saline 93 % of control | dose: 4000.0 mg/kg/injection, schedule: Q01DX009 (ip), vehicle: saline 102 % of control | dose: 4000.0 mg/kg/injection, schedule: Q04DX003 (ip), vehicle: saline 94 % of control

CCCCCCCCCCCCC1CCCC(C)C1 (configuration not stated)
inactive: [18] 89 % of control | [19] 99 % of control | [23] 92 % of control | [7] 105 % of control and 90 % of control | [8] 104 % of control and 90 % of control | dose: 400.0 mg/kg/injection, schedule: Q01DX009 (ip), vehicle: saline with Tween-80 90 % of control | dose: 800.0 mg/kg/injection, schedule: Q04DX002 (ip), vehicle: saline with Tween-80 97 % of control

CCOc1ccn(C2OC(COC(C)=O)C(OC(C)=O)C(OC(C)=O)C2Nc2ccc([N+](=O)[O-])cc2[N+](=O)[O-])c(=O)n1 (configuration not stated)
inactive: [9] 103 % of control | [11] 100 % of control | [13] 97 % of control

CC(C)(C)NC(=O)NCCCN1CCOCC1
inactive: dose: 100.0 mg/kg/injection, schedule: Q04DX002 (ip), vehicle: saline 96 % of control | dose: 200.0 mg/kg/injection, schedule: Q04DX002 (ip), vehicle: saline 90 % of control | dose: 400.0 mg/kg/injection, schedule: Q04DX002 (ip), vehicle: saline 96 % of control

O=C1NNC(=O)NN1
inactive: [1] 97 % of control | [2] 103 % of control | [3] 100 % of control and 101 % of control | [4] 105 % of control | [5] 95 % of control | [6] 94 % of control

O=[N+]([O-])c1ccc(N/N=C/CCl)c([N+](=O)[O-])c1
inactive: dose: 6.25 mg/kg/injection, schedule: Q01DX009 (ip), vehicle: saline with Tween-80 94 % of control and 98 % of control | dose: 6.25 mg/kg/injection, schedule: Q04DX003 (ip), vehicle: saline with Tween-80 99 % of control | dose: 12.5 mg/kg/injection, schedule: Q01DX009 (ip), vehicle: saline with Tween-80 102 % of control and 105 % of control | dose: 12.5 mg/kg/injection, schedule: Q04DX003 (ip), vehicle: saline with Tween-80 87 % of control | [18] 98 % of control and 103 % of control | dose: 25.0 mg/kg/injection, schedule: Q04DX003 (ip), vehicle: saline with Tween-80 91 % of control

c1ccc(N2CCN(Cc3ccc4ccccc4c3)CC2)cc1
inactive: [20] 96 % of control | [21] 100 % of control | [22] 91 % of control

O=S(=O)(CC(Cl)c1ccc(Cl)cc1)c1ccccc1 (configuration not stated)
inactive: [9] 112 % of control | [11] 114 % of control | [13] 109 % of control

CN(C)c1ccc2c(c1)C(=O)c1cc(Br)ccc1-2
inactive: [24] 105 % of control | [25] 100 % of control | [26] 108 % of control

O=C1CCN/C(=N\[N+](=O)[O-])N1
inactive: [20] 101 % of control | [21] 106 % of control

CCOC(=O)c1cnn(C(N)=S)c1N
inactive: [19] 95 % of control | [23] 98 % of control | dose: 100.0 mg/kg/injection, schedule: Q04DX003 (ip), vehicle: saline with Tween-80 102 % of control | dose: 200.0 mg/kg/injection, schedule: Q04DX003 (ip), vehicle: saline with Tween-80 105 % of control | dose: 400.0 mg/kg/injection, schedule: Q04DX003 (ip), vehicle: saline with Tween-80 96 % of control

COc1ccc(/C(C)=N\OC(=O)N(C)C)c(OC)c1
inactive: [24] 100 % of control | [25] 100 % of control | [26] 103 % of control

COC(=O)/C(C)=C\C=C(/C)C(=O)OC
inactive: [15] 100 % of control | [16] 116 % of control | [17] 97 % of control
